# In US20100240627A1, “COMPOSITION AND METHODS RELATING TO GLUCOCORTICOID RECEPTOR-ALPHA AND PEROXISOME PROLIFERATOR-ACTIVATED RECEPTORS” (Universiteit Gent, priority 2007, published 2010):
# Key:
# [1] = test system: TNF-induced IL-6 production in L929sA cells; assay: TNF-induced IL-6 production, murine IL-6 ELISA; type: cell-based; details: 1 h pre-incubation, TNF 200 IU/ml 24 h, DEX 0.01 μM, GW647 0.25-1 μM, WY 2-10 μM, FIG. 1
# Experimental: Murine IL-6 ELISA is performed using a kit from Biosource.
# Medium is collected to perform a murine IL-6 ELISA. Protein levels obtained in ng/ml are calculated as % of max TNF response. Results are shown ±SD. **P<0.01, ***P<0.001 in FIG. 1.
# [2] = test system: GRE-driven gene transcription; assay: p(GRE)2-50-luc reporter in HepG2 cells; type: cell-based, human; details: HepG2 overexpressing PPARα (pSG5PPARα); 8 h
# Experimental: HepG2 and BWTG3 cells are transiently transfected using Lipofectamine according to the manufacturer's instructions, HEK293T cells using CaPO4. At day −1 40,000-50,000 cells/24-well are seeded. At day 0, medium is replaced by 360 μl of fresh normal medium with 10% serum to the cells. The DNA mix is prepared by dissolving (per 24-well) 400 ng of DNA in 20 μl of TE/CaCl2 solution. The DNA-containing mixture is added dropwise to 20 μl BS/Hepes mixture. All is mixed until a fine precipitate is visible. This precipitate is finally added onto the 360 μl medium. After 8 h, medium is replaced with fresh normal medium with 10% serum and inductions are performed the following day. […]
# Luc and β-gal assays are carried out according to instructions of the manufacturer (Promega). Luc activity, expressed in arbitrary light units, is corrected for the protein conc. in the sample by normalization to constitutive β-gal levels. β-gal levels are quantified with a chemiluminescent reporter assay Galacto-Light kit (TROPIX, Bedford, Mass.).
# HepG2 cells are transiently transfected with p(GRE)2-50-luc, and pSG5PPARα (black bars) or pSG5 (white bars). […] Promoter activities are expressed as relative induction factor, i.e., the ratio of expression levels of induced versus non-induced conditions.
# [3] = test system: NF-κB-driven gene expression; assay: p(IL6κB)350hu.IL6P-luc reporter in transfected HEK293T cells; type: cell-based; details: TNF 2000 IU/ml 8 h
# Experimental: (§1) Cell lysates are assayed for luciferase activities and normalized for β-gal activities. A representative of three independent experiments is shown.
# [4] = test system: GRE-driven gene expression; assay: p(GRE)2-50-luc reporter in transfected HEK293T cells; type: cell-based; details: 8 h, DEX 1 or 0.1 μM
# Experimental: as §1
# [5] = test system: PDK-4 mRNA (PPARα target gene); assay: PDK-4 mRNA in primary hepatocytes of WT and PPARα KO mice; type: cell-based, mouse; details: 24 h, GW9578 500 nM, WY 10 μM
# Experimental: Mouse hepatocytes are isolated by collagenase perfusion from livers of wild type and PPARα KO (PPARα−/−) mice essentially using the collagenase method (18), with several modifications. Mouse livers are perfused with Hanks' balanced salt solution (HBSS, Sigma) at a rate of 5 ml/min via cave vein before addition of collagenase Type IV (0.025%, Sigma). Cell viability is assessed by a Trypan Blue exclusion test. […] After overnight incubation, cells are incubated in a fresh William's E medium supplemented with different compounds, DEX and/or PPARα agonists.
# mouse PPARα = molecular target: T1, mouse PPARα (Mus musculus, UniProt P23204); details: cited from earlier work
# T1 sequence (P23204 1-468): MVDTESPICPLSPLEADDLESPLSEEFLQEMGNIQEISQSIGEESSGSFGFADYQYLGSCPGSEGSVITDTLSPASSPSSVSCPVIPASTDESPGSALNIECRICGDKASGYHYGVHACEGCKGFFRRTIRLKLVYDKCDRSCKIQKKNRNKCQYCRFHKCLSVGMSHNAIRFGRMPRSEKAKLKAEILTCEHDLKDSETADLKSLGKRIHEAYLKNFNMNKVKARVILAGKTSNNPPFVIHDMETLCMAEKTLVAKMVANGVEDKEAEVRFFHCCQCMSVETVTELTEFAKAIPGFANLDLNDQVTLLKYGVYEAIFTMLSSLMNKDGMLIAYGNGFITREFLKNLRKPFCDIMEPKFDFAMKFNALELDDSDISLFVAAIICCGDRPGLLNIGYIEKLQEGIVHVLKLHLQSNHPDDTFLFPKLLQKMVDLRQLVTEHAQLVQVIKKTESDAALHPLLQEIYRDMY
# [6] = test system: human placental alkaline phosphatase (hPAP) mRNA; assay: Semi-quantitative PCR of hPAP mRNA; type: cell-based; details: HepG2 and A549 cells, 8 h; DEX 1 μM, WY 10 μM; co-treatment compared to DEX alone
# Experimental: (§2) RNA extraction is performed as described before (12). RNA is isolated from cells by using TRIzol reagent (Invitrogen) according to the manufacturer's instructions. The reverse transcriptase reaction is done by using MLV enzyme (Promega) followed by a PCR reaction with Taq polymerase (Promega) on the obtained cDNA. cDNA is analyzed either by a semi-quantitative PCR using Taq polymerase (Promega) or by real-time PCR with a SYBR Green mastermix (Invitrogen). Primers for QPCR of mIL-6: fwd […] (SEQ ID No. 1) and rev […] (SEQ ID No. 2); for mGILZ: fwd […] (SEQ ID No. […]) and rev […] (SEQ ID No. 4); for hGILZ: fwd […] (SEQ ID No. 5) and rev […] (SEQ ID No. 6); for mG6Pase: fwd […] (SEQ ID No. 7) and rev […] (SEQ ID No. 8); for rMCP-1: fwd […] (SEQ ID No. 9) and rev […] (SEQ ID No. 10); for mMMP-9: […] (SEQ ID No. 11) and rev […] (SEQ ID No. 12). Primers for semi-QPCR of hPLAP: fwd […] (SEQ ID No. 13) and rev […] (SEQ ID No. 14).
# A549 or HepG2 cells are treated for eight hours, mRNA is isolated, reverse transcribed and the resulting cDNA is subjected to semi-quantitative PCR analysis with primers to detect GAPDH (loading control) or hPAP in the same sample. […] Treatment with WY alone has no effect on hPAP mRNA expression.
# [7] = test system: Glucocorticoid-induced Leucine Zipper (GILZ) mRNA; assay: QPCR of GILZ mRNA in HepG2 cells; type: cell-based, human; details: HepG2 (and A549) cells, 3 h; co-treatment compared to DEX alone
# Experimental: as §2
# HepG2 cells and FTO2B cells are incubated with the indicated agents for three hours. mRNA is isolated, reverse transcribed and the resulting cDNA is subjected to SYBR green QPCR with primers to detect G6Pase or Glucocorticoid-induced Leucine Zipper (GILZ). QPCR measurements are performed in triplicate. QPCR results, normalized to expression of household genes, are shown ±SD, in FIGS. 2B and 2C. […]
# cathepsin K = assay: Cathepsin K expression in MG63b osteosarcoma cells; type: cell-based, human; details: 24 hour, DEX 10^−6M, WY 10 μM
# Experimental: Cell culture—Human osteosarcoma cells MG63b and Saos-2 are cultured in Dulbecco Modified Eagle's Medium (DMEM) and McCoy's 5a Medium respectively, supplemented with 10% fetal calf serum (FCS), 100 units/ml penicillin and 0.1 mg/ml streptomycin. RT-PCR—After the appropriate inductions RNA is isolated from the cells by means of the RNeasy mini kit (Qiagen) according to the manufacturer's instructions. The mRNA is reverse transcribed with the verso cDNA kit (ABgene). The obtained cDNA is amplified by a quantitative PCR reaction with iQ Custom SYBR Green Supermix (Biorad). Gene expression of the housekeeping gene hypoxanthine-guanine phosphoribosyltransferase (HPRT) is used for normalization.
# ACO mRNA in mouse liver = assay: Liver ACO mRNA in treated mice; type: in vivo; details: DEX 10 mg/kg i.p., FF 200 mg/kg gavage, daily 5 days
# From the text: Female C57BL6J mice are used at 8 weeks. Mice are randomized to four groups (six mice/group) and matched for body weight. Animals are killed by cervical dislocation after which thymus and liver are recovered and weighed. Total RNA is extracted from liver as described below. ANOVA is used for all analyses, followed by Scheffe post-hoc tests for treated vs control comparisons. The level of significance for all statistical analyses is set at p<0.05.
# GILZ and ACO mRNA expression levels from the liver are quantified via QPCR and normalized for household gene expression. Results from triplicates are shown ±SD. Results are represented as relative expression fold, i.e. with the solvent-treated control value taken as 1.
# calvarial cells = assay: Ex vivo osteoclastogenesis and osteoblast differentiation of calvarial cells; type: cell-based, mouse; details: pharmacological DEX concentrations
# Experimental: Glucocorticoid-induced osteoporosis (GIO) has been considered one of the most debilitating side-effects related to long-term GC usage (Berris, Repp et al. Curr Opin Endocrinol Diabetes Obes 14(6): 446-50). The effects of compositions and methods of the present invention on glucocorticoid-induced osteoporosis is determined by analysis of markers of osteoclastogenesis, including cathepsin K, M-CSF, RANKL and OPG. Since it is believed that an increase in bone resorption is worsened by inhibition of new bone formation, thereby contributing to the GC-mediated decrease in bone mineral density, the effect compositions and methods of the present invention on osteoblast differentiation is determined using calvarial cells isolated from 3-5 day old mice.
# Alkaline phosphatase staining and Q-PCR are performed for the detection of Collal, Alkp, Runx-2 and Bglap (osteocalcin) expression after 10 days of osteoblast differentiation. Alizarin Red staining is performed to determine extracellular calcium deposition after 20 days of osteoblast differentiation.
# Calvarial cells are isolated from 3-5 day old mice (SV 129 background). A piece of the tail is isolated for genotyping. The pups are decapitated with scissors in the laminar flow cabinet, skin and brain are removed and the calvaria transferred into eppendorf tubes containing 1 ml PBS+1% Pen/Strep. The tubes are put on ice until digestion. […]
# TRAP5b = assay: Serum TRAP5b ELISA in DBA/1 mice; type: in vivo, mouse; details: DBA/1 mice serum, daily treatment 8 days
# From the text: (§3) Male 8- to 12-wk-old DBA/1 mice are purchased from Janvier and housed following institutional guidelines. All animal procedures are approved by the institutional animal care and ethics committee. […] The experiment is repeated with agonists for PPARα replaced by the respective agonists for PPARγ (rosiglitazone) or PPARβ/δ (L165041). At day 8, murine serum is collected and used for the determination of TRAP5b and osteocalcin levels. The Mouse TRAP™ Assay is purchased from Immunodiagnostic Systems Ltd. The Mouse Osteocalcin EIA kit is purchased from Biomedical Technologies, Inc. All assays are performed according to the manufacturer's guidelines.
# (§4) The experiment is repeated with agonists for PPARα replaced by the respective agonists for PPARγ (rosiglitazone) or PPARβ/δ(L165041). A TRAP5b ELISA assay is performed for the detection of differentiated osteoclasts.
# osteocalcin = assay: Serum osteocalcin in DBA/1 mice; type: in vivo, mouse; details: daily treatment 8 days
# From the text: as §3, §4
compound,measurement,setting,value
"CC(C)(Sc1ccc(CCN(CCCCC2CCCCC2)C(=O)NC2CCCCC2)cc1)C(=O)O [GW647, 2-(4-(2-(1-Cyclohexanebutyl-3-cyclohexylureido)ethyl)phenylthio)-2-methylpropionic acid]",TNF-induced IL-6 production,[1],inhibited TNF-induced IL-6 production in a dose-responsive manner
same,DEX-induced luciferase activity of p(GRE)2-50-luc,[2],further enhanced
same,NF-κB-driven gene expression (luc),"[3]; HEK293T with pSVhGRα and pSG5PPARα, GW647 0.5 μM, FIG. 12A",inhibits NF-κB-driven gene expression
same,GRE-driven gene expression (luc),"[4]; HEK293T with pSVhGRα and pSG5PPARα, GW647 0.5 μM, FIG. 13A",able to antagonize GRE-driven gene expression
CCCCCCCN(CCc1ccc(SC(C)(C)C(=O)O)cc1)C(=O)Nc1ccc(F)cc1F [GW9578],PDK-4 mRNA levels,[5],significant increase in PDK-4 mRNA levels only in WT cells
same,EC50,mouse PPARα,5 nM
CCCc1c(OCCCOc2ccc(OCC(=O)O)cc2)ccc(C(C)=O)c1O [L165041],NF-κB-driven gene expression (luc),"[3]; HEK293T with pSVhGRα and pSG5PPARδ, L165041, FIG. 12B",efficiently inhibit NF-κB-driven gene expression
same,GRE-driven gene expression (luc),"[4]; HEK293T with pSVhGRα and pSG5PPARδ, L165041 1 μM, FIG. 13B",able to antagonize the GRE-driven gene expression
"Cc1cccc(Nc2cc(Cl)nc(SCC(=O)O)n2)c1C [WY, [[4-chloro-6-[(2,3-dimethylphenyl)amino]-2-pyrimidinyl]thio]-acetic acid]",TNF-induced IL-6 production,[1],inhibited TNF-induced IL-6 production in a dose-responsive manner
same,hPAP mRNA expression,[6],no effect
same,GILZ mRNA expression,[7],no effect
same,DEX-induced luciferase activity of p(GRE)2-50-luc,[2],confirmed
same,PDK-4 mRNA levels,[5],significant increase in PDK-4 mRNA levels only in WT cells
same,cathepsin K expression,cathepsin K,prevent or reverse the upregulation
O=S(=O)(c1ccccc1)N(CC(F)(F)F)c1ccc(C(O)(C(F)(F)F)C(F)(F)F)cc1 [T0901317],NF-κB-driven gene expression (luc),"[3]; HEK293T with pSVhGRα and LXR plasmid, T0901317 1 μM, FIG. 12C",efficiently inhibit NF-κB-driven gene expression
same,GRE-driven gene expression (luc),"[4]; HEK293T with pSVhGRα and pCMX-LXR, T0901317 1 μM, FIG. 13C",not able to antagonize GRE-driven gene expression
"C[C@@H]1C[C@H]2[C@@H]3CCC4=CC(=O)C=C[C@]4(C)[C@@]3(F)[C@@H](O)C[C@]2(C)[C@@]1(O)C(=O)CO [DEX, dexamethasone]",ACO mRNA levels in liver,ACO mRNA in mouse liver,no effect
same,osteoclastogenesis,calvarial cells,inhibit osteoclastogenesis
same,TRAP5b levels,TRAP5b,upregulates TRAP5b levels after 8 days
same,amount of osteocalcin in murine serum,osteocalcin,significantly lowers
